The values that follow come from paper PMC9142583, “Structural basis for broad anti-phage immunity by DISARM” (Nature Communications, 2022).

In assay [1] the target is T1, DrmAB (Serratia, UniProt A0A979HMQ0).
T1 construct: DrmAB heterodimer (~1:1, ~220 kDa) co-expressed in E. coli BL21-AI; Ni-NTA and size exclusion
T1 sequence (A0A979HMQ0 1-1325): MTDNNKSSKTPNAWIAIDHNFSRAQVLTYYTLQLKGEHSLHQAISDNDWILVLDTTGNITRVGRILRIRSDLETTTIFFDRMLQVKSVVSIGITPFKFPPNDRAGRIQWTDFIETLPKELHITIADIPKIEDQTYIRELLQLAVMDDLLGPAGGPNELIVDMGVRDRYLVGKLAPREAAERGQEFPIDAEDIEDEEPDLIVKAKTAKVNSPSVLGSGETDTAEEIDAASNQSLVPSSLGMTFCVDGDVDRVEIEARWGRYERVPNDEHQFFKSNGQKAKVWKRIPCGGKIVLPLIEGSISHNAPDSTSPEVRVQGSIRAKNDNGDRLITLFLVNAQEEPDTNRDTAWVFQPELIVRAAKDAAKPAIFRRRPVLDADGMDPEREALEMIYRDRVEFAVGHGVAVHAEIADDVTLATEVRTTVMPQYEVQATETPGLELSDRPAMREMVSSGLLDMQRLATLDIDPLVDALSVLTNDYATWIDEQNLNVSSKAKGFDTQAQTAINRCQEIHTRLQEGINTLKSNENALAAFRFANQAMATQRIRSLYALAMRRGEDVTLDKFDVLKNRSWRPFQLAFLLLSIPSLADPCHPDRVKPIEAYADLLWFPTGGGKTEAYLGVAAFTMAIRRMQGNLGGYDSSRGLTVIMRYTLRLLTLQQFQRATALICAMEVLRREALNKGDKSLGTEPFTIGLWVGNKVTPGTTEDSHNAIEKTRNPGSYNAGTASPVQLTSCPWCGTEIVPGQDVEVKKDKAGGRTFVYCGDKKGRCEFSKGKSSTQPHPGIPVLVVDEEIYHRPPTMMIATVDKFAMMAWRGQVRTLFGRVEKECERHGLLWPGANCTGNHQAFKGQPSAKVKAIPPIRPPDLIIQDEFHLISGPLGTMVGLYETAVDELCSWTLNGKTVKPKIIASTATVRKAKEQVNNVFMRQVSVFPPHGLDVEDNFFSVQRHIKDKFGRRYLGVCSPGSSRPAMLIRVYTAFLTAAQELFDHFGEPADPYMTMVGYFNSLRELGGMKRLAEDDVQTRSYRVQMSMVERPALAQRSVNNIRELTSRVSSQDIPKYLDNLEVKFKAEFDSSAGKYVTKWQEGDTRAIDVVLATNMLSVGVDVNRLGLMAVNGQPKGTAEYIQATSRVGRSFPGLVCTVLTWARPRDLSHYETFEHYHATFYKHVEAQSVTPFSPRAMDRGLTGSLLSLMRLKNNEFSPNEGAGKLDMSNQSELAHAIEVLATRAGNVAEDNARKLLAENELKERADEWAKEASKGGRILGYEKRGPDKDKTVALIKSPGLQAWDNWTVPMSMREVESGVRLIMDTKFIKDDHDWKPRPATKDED
T1 sequence (A0A979HMQ1 1-619 partner): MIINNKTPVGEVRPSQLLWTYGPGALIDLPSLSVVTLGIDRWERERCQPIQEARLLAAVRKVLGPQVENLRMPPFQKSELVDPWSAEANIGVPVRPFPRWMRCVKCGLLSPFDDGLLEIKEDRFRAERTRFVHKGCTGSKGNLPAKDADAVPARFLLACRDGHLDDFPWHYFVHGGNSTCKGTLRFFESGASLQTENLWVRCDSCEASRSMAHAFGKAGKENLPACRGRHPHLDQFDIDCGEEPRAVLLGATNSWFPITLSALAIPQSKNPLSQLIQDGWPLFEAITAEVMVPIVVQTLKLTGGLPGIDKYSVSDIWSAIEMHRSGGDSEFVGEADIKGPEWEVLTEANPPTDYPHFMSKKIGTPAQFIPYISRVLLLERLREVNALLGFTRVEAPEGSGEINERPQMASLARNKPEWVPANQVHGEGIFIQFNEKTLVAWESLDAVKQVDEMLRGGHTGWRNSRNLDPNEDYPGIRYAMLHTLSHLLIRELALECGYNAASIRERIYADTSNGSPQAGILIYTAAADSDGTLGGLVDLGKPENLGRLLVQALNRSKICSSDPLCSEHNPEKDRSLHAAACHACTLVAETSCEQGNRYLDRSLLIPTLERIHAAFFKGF
The assay is described as follows: cryo-EM structure ([…]-3.[…] A). It is filed as binding. The note with it: 1 mM ADP, 10 uM DrmAB; pH 7.4, ~25 C; canonical ATP site between RecA1 and RecA2 of DrmA; also in DNA-bound complex 7S9W.

The target in assay [2] is T1, DrmAB. The assay is described as follows: ATPase assay, absorbance at […] nm. Format: biochemical. To be noted: needs unmethylated DNA stem loop; mere turnover.
For assay [3], the target named is DrmB (Serratia sp. SCBI DISARM DUF1998-containing protein) (Serratia sp. SCBI). The assay is described as follows: co-purification (Ni-NTA, then SEC); proteins co-expressed in E. coli BL21-AI; His6-DrmB captured on Ni-NTA (25 mM HEPES pH 8, 600 mM NaCl), then HiLoad 16/600 Superdex 200 (25 mM HEPES pH 8, 150 mM NaCl, 5% glycerol, 1 mM DTT), 4 °C; fractions checked by SDS-PAGE.

For the compound `Nc1ncnc2c1ncn2[C@@H]1O[C@H](COP(=O)(O)OP(=O)(O)O)[C@@H](O)[C@H]1O` [ADP], on DrmAB [1], the “cryo-EM structure (3.3-3.4 A)” value is “We observed strong density corresponding to ADP within our DNA-bound (Fig. 2e) and DNA-free maps”.
On to `Nc1ncnc2c1ncn2[C@@H]1O[C@H](COP(=O)(O)OP(=O)(O)OP(=O)(O)O)[C@@H](O)[C@H]1O` [ATP], for which the “ATPase assay, absorbance at 360 nm” value on DrmAB [2] is reported as “Robust ATPase activity is strongly stimulated by unmethylated DNA”.
With “DrmA (Serratia sp. SCBI DISARM helicase) (natural protein)”, the stoichiometry N in assay [3] worked out at 1.

The term stoichiometry N denotes a count of units in the complex or per binding partner.
